# Data: patent US20120277257A1, “Methods of Treating Diseases, Pharmaceutical Compositions, and Pharmaceutical Dosage Forms” (MYREXIS, INC., priority 2009, published 2012)
# Where two headings read alike, the source gives them in different places.
# How the values were obtained:
# [1] = Plasma pharmacokinetics in N-87 tumor-bearing nude mice; assay type: in vivo; conditions: mouse, 200 mg/kg single dose, median values (n = 6)
# Description: Xenografted mice bearing N-87 tumors (median volume ˜425 mm^3) were given a single oral dose of Compound 1 (200 mg/kg). Blood, tumor and liver samples (n=6) were collected at 0.25, 0.5, 1, 2, 4, 8, 12, 24, 36 and 48 h post-dose and used to determine Compound 1 concentrations in the plasma and Hsp70 RNA levels in tumor and liver samples (See FIG. 6). Hsp70 RNA levels were determined by qRT-PCR.
# [2] = Phase I clinical trial, human plasma pharmacokinetics of oral Compound 1; assay type: in vivo; conditions: for AUC(0-inf) / Vd/F / AUC(0-t) / Cmax / Tmax / half-life: human, plasma, po; for Vd/F: read-out: Vz/F; for AUC(0-t): read-out: AUC(0-24)
# Description: A human clinical study was initiated at a starting dose of 50 mg/m^2. Subjects had recurrent cancer refractory to available systemic therapy. Compound 1 was administered daily by mouth in tablet form for 21 consecutive days in a 28 day cycle to each enrolled subject. […] Plasma was collected pre-dose only for cycle 1 day 8. […] Patients were men and women with metastatic cancer, ranged in age from 45 to 85 years, and received doses ranging from 50 mg/m^2 to 340 mg/m^2, with a total daily dose of 100-740 mg (Tables 2A and 2B).
# [3] = both sexes, 50 mg/m^2, Day 01, Cohort 1, 50 mg/m^2 (100 mg), oral daily
# [4] = both sexes, 100 mg/m^2, Day 01, Cohort 2, 100 mg/m^2 (160 mg), oral daily
# [5] = both sexes, 165 mg/m^2, Day 01, Cohort 3, 165 mg/m^2 (300 mg), oral daily
# [6] = both sexes, 240 mg, Day 01, Cohort 6 (BID), N = 4, 240 mg, oral twice daily
# [7] = both sexes, 240 mg, Day 21, Cohort 6 (BID), N = 2, 240 mg, oral twice daily
# [8] = both sexes, 245 mg/m^2, Day 01, Cohort 4, 245 mg/m^2 (340-540 mg), oral daily
# [9] = both sexes, 340 mg/m^2, Day 01, Cohort 5 (BID), N = 6, 340 mg/m^2 (270-370 mg), oral twice daily
# [10] = both sexes, Day 21, Cohort 4, N = 6, 176-245 mg/m^2 (340-540 mg), oral daily
# [11] = 50 mg/m^2, Day 01, Cohort 1, Subject 101, 50 mg/m^2 (100 mg), oral daily
# [12] = 50 mg/m^2, Day 19, Cohort 1, 50 mg/m^2 (100 mg), oral daily
# [13] = 50 mg/m^2, Day 19, Cohort 1, Subject 101, 50 mg/m^2 (100 mg), oral daily
# [14] = 100 mg/m^2, Day 01, Cohort 2, Subject 201, 100 mg/m^2 (160 mg), oral daily
smiles,measurement,setting,value
"C[C@H](O)C(=O)N1CCC(CCn2c(Sc3cc4c(cc3Br)OCO4)nc3c(N)ncnc32)CC1 [Compound 1, (2S)-1-[4-(2-{6-amino-8-[(6-bromo-1,3-benzodioxol-5-yl)thio]-9H-purin-9-yl}ethyl)piperidin-1-yl]-1-oxopropan-2-ol]",Cmax,[1]; oral,21800 ng/mL
same,AUC(0-t),"[1]; oral, read-out: AUC(0-24)",136000 ng·h/mL
same,Tmax,[1]; po,4 h
same,half-life,[1]; po,4.8 h
same,CL/F,"[2]; Day 01, Cohort 1, 50 mg/m^2 (100 mg), oral daily",4098 mL/h
same,CL/F,"[2]; Day 01, Cohort 2, 100 mg/m^2 (160 mg), oral daily",4343 mL/h
same,CL/F,"[2]; Day 01, Cohort 3, 165 mg/m^2 (300 mg), oral daily",2405 mL/h
same,CL/F,"[2]; Day 01, Cohort 4, 245 mg/m^2 (340-540 mg), oral daily",3118 mL/h
same,CL/F,"[2]; Day 01, Cohort 5 (BID), 340 mg/m^2 (270-370 mg), oral twice daily",2517 mL/h
same,CL/F,"[2]; Day 01, Cohort 5, 340 mg/m^2 (480-620 mg), oral daily",2500 mL/h
same,CL/F,"[2]; Day 01, Cohort 6 (BID), 240 mg, oral twice daily",5956 mL/h
same,CL/F,"[2]; Day 19, Cohort 1, 50 mg/m^2 (100 mg), oral daily",4547 mL/h
same,CL/F,"[2]; Day 21, Cohort 2, 100 mg/m^2 (160 mg), oral daily",3213 mL/h
same,CL/F,"[2]; Day 21, Cohort 3, 165 mg/m^2 (300 mg), oral daily",1502 mL/h
same,CL/F,"[2]; Day 21, Cohort 4, 176-245 mg/m^2 (340-540 mg), oral daily",3509 mL/h
same,CL/F,"[2]; Day 21, Cohort 5 (BID), 340 mg/m^2 (330 mg), oral twice daily",4746 mL/h
same,CL/F,"[2]; Day 21, Cohort 5, 340 mg/m^2 (620 mg), oral daily",1323 mL/h
same,CL/F,"[2]; Day 21, Cohort 6 (BID), 240 mg, oral twice daily",4003 mL/h
same,AUC(0-inf),[2]; [3],24400 ng·h/mL
same,Vd/F,[2]; [3],50.5 L
same,AUC(0-inf),[2]; [4],36800 ng·h/mL
same,AUC(0-t),[2]; [4],29900 ng·h/mL
same,Vd/F,[2]; [4],61.6 L
same,AUC(0-inf),[2]; [5],125000 ng·h/mL
same,AUC(0-t),[2]; [5],91800 ng·h/mL
same,Vd/F,[2]; [5],40 L
same,Cmax,[2]; [6],6250 ng/mL
same,Tmax,[2]; [6],1 h
same,half-life,[2]; [6],5.5 h
same,Cmax,[2]; [7],9200 ng/mL
same,Tmax,[2]; [7],1.5 h
same,half-life,[2]; [7],6.2 h
same,AUC(0-inf),[2]; [8],143000 ng·h/mL
same,AUC(0-t),[2]; [8],99100 ng·h/mL
same,Vd/F,[2]; [8],61.4 L
same,Cmax,[2]; [9],8120 ng/mL
same,Tmax,[2]; [9],2 h
same,half-life,[2]; [9],7.5 h
same,Cmax,[2]; [10],9270 ng/mL
same,Tmax,[2]; [10],2 h
same,half-life,[2]; [10],13.2 h
same,oral bioavailability,[2]; human cancer patients,orally bioavailable
same,increase in drug levels with increasing dose,"[2]; human patients, oral tablets",more-than-proportional increase
same,AUC(0-t),"[2]; 50 mg/m^2, Day 01, Cohort 1, 50 mg/m^2 (100 mg), oral daily",20600 ng·h/mL
same,Cmax,[2]; [11],1900 ng/mL
same,Tmax,[2]; [11],2 h
same,half-life,[2]; [11],8.5 h
same,AUC(0-inf),[2]; [12],30800 ng·h/mL
same,AUC(0-t),[2]; [12],22000 ng·h/mL
same,Vd/F,[2]; [12],88 L
same,Cmax,[2]; [13],1700 ng/mL
same,Tmax,[2]; [13],1 h
same,half-life,[2]; [13],13.4 h
same,Cmax,[2]; [14],2950 ng/mL
same,Tmax,[2]; [14],2 h
